The test system of one data set is Vero cells. Description: Cytotoxicity MTT assay in Vero cells (MNTD, CC50). The data set is classed as cell-based, African green monkey. (In general: Tetrazolium dyes change colour on reduction, which living cells bring about.)
A further data set deals with CHIKV DRDE-07. Description: In vitro screening against CHIKV (CPE inhibition and MTT cell viability). The data set is classed as cell-based, chikungunya virus. The settings on record: for Cell Viability: CHIKV-infected Vero cells treated at MNTD, MTT, cell control + DMSO = 100%; for Cell Viability / % Cell viability: 72 hpi; for CPE / % Cell viability: Table S1, CHIKV-infected Vero cells; for CPE: arbitrary score of cytopathic effect at >48 hpi; for % Cell viability: MTT assay.

The nature of data set [1]: Cytotoxicity MTT assay in Vero cells (MNTD, CC50). The data set is classed as cell-based, African green monkey. Particulars: African green monkey.
Data set [2] relates to CHIKV. Description: Mode of inhibition (time of addition), MTT cell viability. The data set is classed as cell-based, chikungunya virus. The settings on record: for viability at 300 µM: Chikungunya virus.
Data set [3] has as its system CHIKV. Description: Cytopathic effect inhibition and cell viability dose-response assay. It counts as cell-based, chikungunya virus. (In general: Damage to the host cells serves as the signal in cytopathic effect assays.)
Data set [4] relates to CHIKV. Description: Plaque assay, CHIKV. The settings on record: 300 μM, MOI 0.1. The data set is classed as cell-based, chikungunya virus.
The subject of data set [5] is CHIKV. Description: Immunofluorescence assay, CHIKV E2 mAb. It counts as cell-based, chikungunya virus.
The next data set deals with CHIKV-E2 protein. Description: Western blot of CHIKV E2 protein. Particulars: 18 hpi, compared to virus control. The data set is classed as cell-based, chikungunya virus. On the technique in general: A western blot detects proteins with antibodies after separation by electrophoresis.
Data set [6] has as its system RRV T48 strain. Description: Plaque assay, RRV. The settings on record: 300 µM; for RRV titer: MOI 0.1; for percent reduction in virus titer: with respect to virus control. The data set is classed as cell-based, Ross River virus.
In data set [7] the test system is RRV T48 strain. Description: Immunofluorescence and MTT cell viability assays, RRV. It counts as cell-based, Ross River virus. Particulars: 300 µM, 36 hpi.
[8] abbreviates: maximum nontoxic dose in Vero cells, MTT.

Several values for one entry are separate records, joined by “and”; a condition that tells them apart may be missing. Equal values may be shown once. Read-outs that look alike come from different tables or passages of the source.

The compound `Brc1cc2c(c3ncccc13)Oc1ncccc1O2` [DCR 1, 5-bromo-7,12-dioxa-1,11-diaza-benzo[a]anthracene] had an MNTD with Vero cells (Table S1, Vero cells) of 50 µM. This compound also came in with an MNTD in the data set on Vero cells (setting [8]) of 50 µM. Moreover, in the data set with CHIKV DRDE-07, the “Cell Viability” value was 72% and the CPE result is “++ (50-30% (++))”.
For the compound `Brc1cc2c(c3ncccc13)Oc1cc(Br)c3cccnc3c1O2` [DCR 2, 5,12-dibromo-[1,4]dioxino[2,3-h:5,6-h’]diquinoline], the MNTD is 50 µM in the data set with Vero cells (Table S1, Vero cells) and 50 µM with Vero cells (setting [8]). For the same compound, in the data set on CHIKV DRDE-07, the “Cell Viability” value was 63%. Moreover, the CPE entry with CHIKV DRDE-07 was “++ (50-30% (++))”.
Turning to `Clc1ncccc1Oc1cc2c(c3ncccc13)Oc1ncccc1O2` [DCR 3, 7-[(2-chloropridin-3-yl)oxy]-5,12-dioxa-1,11-diazatetraphene], in the data set on Vero cells (Table S1, Vero cells), the MNTD turned out to be 50 µM. The compound further had an MNTD with Vero cells (setting [8]) of 50 µM. In the data set on CHIKV DRDE-07, the “Cell Viability” value stood at 69.9% and the CPE result was “++ (50-30% (++))”.
In the case of `Nc1nc(N)c2ccccc2n1` [DCR 134, Quinazoline-2,4-diamine], the MNTD in the data set with Vero cells (Table S1, Vero cells) is recorded as 150 µM. In the data set on Vero cells (setting [8]), this compound gave an MNTD of 150 µM. Further, in the data set with CHIKV DRDE-07, the “Cell Viability” value is reported as 75.9% and the CPE result is reported as “+ (<30%)”.
With `Nc1nc(N)c2c(F)cccc2n1` [DCR 135, 5-fluoro-quinazoline-2,4-diamine], the MNTD in the data set with Vero cells (Table S1, Vero cells) worked out at 250 µM. The compound also returned an MNTD in the data set on Vero cells (setting [8]) of 250 µM. Moreover, in the data set with CHIKV DRDE-07, the “Cell Viability” value was determined as 61% and the CPE result is “++ (50-30% (++))”.
In the case of `Nc1nc(N)c2ccc(F)cc2n1` [DCR 136, 7-fluoro-quinazoline-2,4-diamine], the MNTD in the data set with Vero cells (Table S1, Vero cells) stood at 250 µM. Further, the MNTD with Vero cells (setting [8]) turned out to be 250 µM. In the data set on CHIKV DRDE-07, the “Cell Viability” value is 54% and the CPE result is “++ (50-30% (++))”.
The term CC50 denotes the concentration at which the toxic effect on the cells reaches its halfway point. High values mean better tolerance by the cells, low ones harm at low concentration. One may read the viability as a per cent measure of how many cells are alive, often set against a control. For orientation: EC50 means the concentration at which the effect is half-maximal. Compound `Nc1nc(N)c2cc(F)ccc2n1` [DCR 137, 6-fluoro-quinazoline-2,4-diamine] yielded a 50% cytotoxic concentration (CC50) at 72 h in [1] (Vero cells, MTT) above 1.1 mM. Besides, in data set [1] (uninfected Vero cells at MNTD, read-out: cell viability at MNTD), the viability at 72 h is around 90%. Further, the MNTD in the data set on Vero cells (Table S1, Vero cells) was 300 µM; in the data set on Vero cells (setting [8]) it was 300 µM. Further, the MNTD value in the data set on Vero cells (Vero cells) was > 300 μM and ~ 312 μM. In the data set on Vero cells (Vero cells, 312.5 µM, 48 hpi, microscopy), the “cytotoxicity (cell morphology)” value is given as “No significant cytotoxicity”. For the same compound, in the data set with CHIKV DRDE-07, the CPE entry is “+ (<30%)”. Moreover, the viability at 300 µM was above 95% in the data set with CHIKV [2] (2 h, read-out: cell viability, post-treatment); 15% in the data set on CHIKV [2] (read-out: cell viability, pre-treatment); 29% with CHIKV [2] (read-out: cell viability, simultaneous treatment). Besides, the “effect of pre-treatment or simultaneous treatment on viral infection” value with CHIKV [2] (pre-treatment 24 h or simultaneous 1 h, CHIKV MOI 1) is listed as “no inhibitory effects”. In the data set on CHIKV [3] (150 and 300 µM, CHIKV-infected Vero cells), the “cytopathic effect (microscopy)” value is “delayed and dose-dependent CPE”. Also, the 50% effective concentration (EC50) with CHIKV [3] (Chikungunya virus, Vero, CHIKV replication in Vero cells, post-treatment, MTT at 48 hpi) was around 37 µM. Also, the CHIKV titer is reported as 1.8 × 10^2 PFU/mL with CHIKV [4] (24 hpi, virus control 2.8 × 10^6) and 1.9 × 10^5 PFU/mL in the data set with CHIKV [4] (48 hpi, virus control 9.1 × 10^8). In addition, the “viral fluorescence (immunofluorescence)” value with CHIKV [5] (300 µM, CHIKV MOI 0.1, 36 hpi) is given as “complete abrogation of viral fluorescence”. In the data set on CHIKV [5] (CHIKV, immunofluorescence, ribavirin positive control), the “protection compared to ribavirin” value is listed as “higher protection”. Besides, in the data set on CHIKV-E2 protein, the CHIKV-E2 protein expression result is “significant decrease”. The RRV titer with RRV T48 strain [6] (24 hpi, untreated 3.0 × 10^6) was 1.1 × 10^2 PFU/mL; in the data set with RRV T48 strain [6] (48 hpi, untreated 1.2 × 10^8), 1.7 × 10^5 PFU/mL. Moreover, the “percent reduction in virus titer” value is recorded as 99.99% in the data set on RRV T48 strain [6] (24 hpi) and 99.85% with RRV T48 strain [6] (48 hpi). Further, the “green fluorescence (RRV immunofluorescence)” value in the data set on RRV T48 strain [7] was “barely detectable”.
For the compound `Nc1nc(N)c2cc(F)c(F)cc2n1` [DCR 138, 6,7-difluoro-quinazoline-2,4-diamine], the MNTD in the data set on Vero cells (Table S1, Vero cells) is 250 µM; in the data set on Vero cells (setting [8]) it was 250 µM. Besides, the “Cell Viability” value in the data set on CHIKV DRDE-07 worked out at 51%. In the data set with CHIKV DRDE-07, the CPE result is listed as “++ (50-30% (++))”.
In turn, `COc1cccc2nc(N)nc(N)c12` [DCR 139, 5-methoxy-quinazoline-2,4-diamine] returned an MNTD with Vero cells (Table S1, Vero cells) of 250 µM. In the data set with Vero cells (setting [8]), the MNTD came out at 250 µM. In the data set on CHIKV DRDE-07, the “Cell Viability” value came out at 57% and the CPE result is “++ (50-30% (++))”.
In the case of “(E)-N'-(5-bromo-2-methoxybenzylidene)isonicotinohydrazide [DCR39]”, the MNTD in the data set with Vero cells (Table S1, Vero cells) is 31.25 µM. Besides, in the data set on CHIKV DRDE-07, the “% Cell viability” value came to 3.81% and the CPE result is “++++ (>60% (++++))”.
The like results for “(E)-N'-(5-bromo-2-methoxybenzylidene)nicotinohydrazide [DCR24]” were, in that order, 15.6 µM, 25.23% and “++++ (>60% (++++))”.

For the origin of these results see PMC10674894 (Viruses, 2023).
